# Reference: patent US8165517B2, “Methods for identifying inhibitors of vascular injury” (The Trustees of the University of Pennsylvania, priority 2005, dated 2012)
# How the values were obtained:
# [1] = test system: mouse aortic smooth muscle cell (mASMC); assay: mASMC proliferation by MTT assay; format: cell-based; conditions: PGD2 1 and 5 μM, 24 hr, confluent, quiescent SMC
# Method: FIG. 6 depicts the effect of PGD2 on mASMC proliferation. Confluent, quiescent SMC were treated with varies concentrations of PGD2. Cell proliferation was determined by MTT assay at 24 hr. Values are mean±S.E.M. (*: P<0.005, by One-way ANOVA and t test, n=6).
# The effect of PGD2 on mASMC proliferation was determined by MTT assay.
# [2] = test system: MAP Kinase (MAPK), phosphorylated ERK1/2, in mASMC; assay: MAPK activation in mASMC by Western analysis of SMC lysate; format: cell-based, mouse
# Method: FIG. 7 depicts the effect of PGD2 on MAPK activation in mASMC. Confluent, quiescent SMC were treated with 1 μM PGD2 for varies timepoints. Cells were lysed and the lysate was analyzed for phosphorylated ERK1/2 (upper panel) and MARK (lower panel) by Western analysis, using antibodies to phosphotyrosine −ERK1/2 and ERK1/2, respectively.
# The effect of PGD2 on activation of MAP Kinase (MAPK) was tested by Western analysis of SMC lysate.
smiles,measurement,setting,value
"CCCCC[C@H](O)/C=C/[C@H]1C(=O)C[C@H](O)[C@@H]1C/C=C\CCCC(=O)O [PGD2, Prostaglandin D2]",effect on mASMC proliferation,[1],significantly promote mASMC proliferation
same,level of phosphorylated-MAPK1/2 over time,"[2]; 1 μM PGD2, after 15 min",returned to control levels
same,"activation of MAP Kinase (phosphorylated-MAPK1/2, 44 and 42 kDa)","[2]; 1 μM PGD2, as early as 10 min",induction of a phosphorylated-MAPK1/2
